ChEMBL document CHEMBL3885861, “Open TG-GATES”

Species: Rattus norvegicus
Assay: Open TG-GATES - Regimen: Single
Type: toxicity, organism-based, Sprague-Dawley
Design: regimen Single, gender Male, age 6 weeks
Details: in vivo, po, 20 mg/kg, route gavage, dose level Low; for APTT / Bas / Eos / Fbg / Hb / Ht / Lym / MCH / MCHC / MCV / Mono / Neu / PT / Plat / RBC / Ret / WBC: tissue Blood; for KIDNEY_L / KIDNEY_R / KIDNEY_TOTAL: tissue Kidney; for LIVER: tissue Liver; for A/G / ALP / ALT / AST / BUN / CRE / Ca / Cl / DBIL / GLC / IP / K / LDH / Na / PL / RALB / TBIL / TC / TG / TP / gamma-GTP: tissue Plasma

With CCc1oc2ccccc2c1C(=O)c1cc(Br)c(O)c(Br)c1 [BENZBROMARONE] the TERMINAL_BW (3 h) was 212.8 g, the APTT (3 h) was 16.3 s and the Bas (3 h) was 0%. For the same compound, the Eos (3 h) was 0.6%, the Fbg (3 h) was 237.6 mg/dL and the Hb (3 h) was 13.8 g/dL. The Ht (3 h) was 41%, the Lym (3 h) was 81.2% and the MCH (3 h) was 21.7 pg. The MCHC (3 h) was 33.6%, the MCV (3 h) was 64.6 fL and the Mono (3 h) was 8.4%. The Neu (3 h) was 9.8%, the PT (3 h) was 11.8 s and the Plat (3 h) was 106.4 x10_4/uL. The RBC (3 h) was 634.6 x10_4/ul, the Ret (3 h) was 7.7% and the WBC (3 h) was 91.2 x10_2/uL. The KIDNEY_L (3 h) was 0.9 g, the KIDNEY_R (3 h) was 1 g and the KIDNEY_TOTAL (3 h) was 1.9 g. It also gave an LIVER (3 h) of 10.1 g, an A/G (3 h) of 2.3 and an ALP (3 h) of 902 IU/L. For the same compound, the ALT (3 h) was 33.6 IU/L, the AST (3 h) was 62 IU/L and the BUN (3 h) was 11.2 mg/dL. It also gave a CRE (3 h) of 0.6 mg/dL, a Ca (3 h) of 10.7 mg/dL and a Cl (3 h) of 103.4 meq/L. The DBIL (3 h) was 0.034 mg/dL, the GLC (3 h) was 195.4 mg/dL and the IP (3 h) was 9.5 mg/dL. The K (3 h) was 4.8 meq/L, the LDH (3 h) was 81.6 IU/L and the Na (3 h) was 139 meq/L. For the same compound, the PL (3 h) was 147 mg/dL, the RALB (3 h) was 3.9 g/dL and the TBIL (3 h) was 0.3 mg/dL. For the same compound, the TC (3 h) was 79.6 mg/dL, the TG (3 h) was 81.2 mg/dL and the TP (3 h) was 5.6 g/dL. It also gave a gamma-GTP (3 h) of 1 IU/L, a TERMINAL_BW (6 h) of 212.2 g and an APTT (6 h) of 16.1 s. It also gave a Bas (6 h) of 0%, an Eos (6 h) of 1.2% and a Fbg (6 h) of 228 mg/dL. For the same compound, the Hb (6 h) was 13.8 g/dL, the Ht (6 h) was 41.2% and the Lym (6 h) was 79.4%. The MCH (6 h) was 21.6 pg, the MCHC (6 h) was 33.5% and the MCV (6 h) was 64.5 fL. The Mono (6 h) was 7%, the Neu (6 h) was 12.6% and the PT (6 h) was 12.1 s. For the same compound, the Plat (6 h) was 113.8 x10_4/uL, the RBC (6 h) was 639.4 x10_4/ul and the Ret (6 h) was 7.7%. The WBC (6 h) was 111.3 x10_2/uL, the KIDNEY_L (6 h) was 1 g and the KIDNEY_R (6 h) was 1 g. For the same compound, the KIDNEY_TOTAL (6 h) was 2 g, the LIVER (6 h) was 9.9 g and the A/G (6 h) was 2.2. For the same compound, the ALP (6 h) was 710.4 IU/L, the ALT (6 h) was 28.8 IU/L and the AST (6 h) was 59.4 IU/L. The BUN (6 h) was 11.2 mg/dL, the CRE (6 h) was 0.4 mg/dL and the Ca (6 h) was 10.5 mg/dL. The Cl (6 h) was 103.2 meq/L, the DBIL (6 h) was 0.002 mg/dL and the GLC (6 h) was 183 mg/dL. It also gave an IP (6 h) of 9.6 mg/dL, a K (6 h) of 5.1 meq/L and an LDH (6 h) of 90 IU/L. The Na (6 h) was 138.2 meq/L, the PL (6 h) was 136.4 mg/dL and the RALB (6 h) was 3.8 g/dL. It also gave a TBIL (6 h) of 0.4 mg/dL, a TC (6 h) of 75 mg/dL and a TG (6 h) of 75.4 mg/dL. It also gave a TP (6 h) of 5.6 g/dL, a gamma-GTP (6 h) of 1 IU/L and a TERMINAL_BW (9 h) of 210.1 g. For the same compound, the APTT (9 h) was 15.6 s, the Bas (9 h) was 0% and the Eos (9 h) was 1%. For the same compound, the Fbg (9 h) was 234.6 mg/dL, the Hb (9 h) was 13.8 g/dL and the Ht (9 h) was 40.9%. It also gave a Lym (9 h) of 84.2%, an MCH (9 h) of 22.1 pg and an MCHC (9 h) of 33.8%. It also gave an MCV (9 h) of 65.5 fL, a Mono (9 h) of 6.2% and a Neu (9 h) of 8.8%. It also gave a PT (9 h) of 12.2 s, a Plat (9 h) of 113.6 x10_4/uL and an RBC (9 h) of 625.2 x10_4/ul. For the same compound, the Ret (9 h) was 7.6%, the WBC (9 h) was 103.5 x10_2/uL and the KIDNEY_L (9 h) was 1 g. For the same compound, the KIDNEY_R (9 h) was 1 g, the KIDNEY_TOTAL (9 h) was 1.9 g and the LIVER (9 h) was 9.3 g. It also gave an A/G (9 h) of 2.1, an ALP (9 h) of 840.2 IU/L and an ALT (9 h) of 29.6 IU/L. For the same compound, the AST (9 h) was 60 IU/L, the BUN (9 h) was 10 mg/dL and the CRE (9 h) was 0.5 mg/dL. It also gave a Ca (9 h) of 10.1 mg/dL, a Cl (9 h) of 104.2 meq/L and a DBIL (9 h) of 0.008 mg/dL. The GLC (9 h) was 194.4 mg/dL, the IP (9 h) was 10.5 mg/dL and the K (9 h) was 4.8 meq/L. The LDH (9 h) was 86.6 IU/L, the Na (9 h) was 138.4 meq/L and the PL (9 h) was 119.4 mg/dL. It also gave an RALB (9 h) of 3.8 g/dL, a TBIL (9 h) of 0.4 mg/dL and a TC (9 h) of 67.8 mg/dL. The TG (9 h) was 44 mg/dL, the TP (9 h) was 5.7 g/dL and the gamma-GTP (9 h) was 1 IU/L. For the same compound, the TERMINAL_BW (24 h) was 225.2 g, the APTT (24 h) was 16.5 s and the Bas (24 h) was 0%. It also gave an Eos (24 h) of 1.6%, a Fbg (24 h) of 229 mg/dL and a Hb (24 h) of 13.9 g/dL. For the same compound, the Ht (24 h) was 41.3%, the Lym (24 h) was 78.2% and the MCH (24 h) was 21.8 pg. The MCHC (24 h) was 33.7%, the MCV (24 h) was 64.8 fL and the Mono (24 h) was 7.8%. It also gave a Neu (24 h) of 13%, a PT (24 h) of 12.1 s and a Plat (24 h) of 112.8 x10_4/uL. For the same compound, the RBC (24 h) was 636.8 x10_4/ul, the Ret (24 h) was 7.2% and the WBC (24 h) was 103.7 x10_2/uL. The KIDNEY_L (24 h) was 1 g, the KIDNEY_R (24 h) was 1 g and the KIDNEY_TOTAL (24 h) was 2 g. The LIVER (24 h) was 11.3 g, the A/G (24 h) was 2 and the ALP (24 h) was 915.4 IU/L. It also gave an ALT (24 h) of 37 IU/L, an AST (24 h) of 62.6 IU/L and a BUN (24 h) of 18.6 mg/dL. For the same compound, the CRE (24 h) was 0.6 mg/dL, the Ca (24 h) was 10.5 mg/dL and the Cl (24 h) was 105.2 meq/L. The DBIL (24 h) was 0.04 mg/dL, the GLC (24 h) was 184.2 mg/dL and the IP (24 h) was 7.8 mg/dL. For the same compound, the K (24 h) was 5.4 meq/L, the LDH (24 h) was 105.4 IU/L and the Na (24 h) was 138.4 meq/L. The PL (24 h) was 161.2 mg/dL, the RALB (24 h) was 4 g/dL and the TBIL (24 h) was 0.3 mg/dL. For the same compound, the TC (24 h) was 83.2 mg/dL, the TG (24 h) was 131 mg/dL and the TP (24 h) was 6 g/dL. The gamma-GTP (24 h) was 1.4 IU/L.
